In publication PMC8956739, “A synthetic lipopeptide targeting top-priority multidrug-resistant Gram-negative pathogens” (Nature Communications, 2022):
In brackets after ≈: the same amount, converted by molar mass. Several values for one entry are separate records, joined by “and”; a condition that tells them apart may be missing. Identical values can stand only once. Residues, ends and D or L forms follow the SMILES beside them.

How the values were obtained:
[1] = test system: P. aeruginosa FADDI-PA038; assay type: cell-based, Pseudomonas aeruginosa; conditions: FADDI-PA038
Method: (§1) MICs were determined in cation-adjusted Mueller–Hinton broth (CaMHB) by the broth micro-dilution method against ATCC strains and clinical isolates. MICs in the presence of Survanta® were determined as described above against P. aeruginosa ATCC 27853. In the 100 μL of fresh CaMHB containing polymyxins, 10% Survanta® (v/v, 2.5 mg/mL phospholipids) was added. MICs in the presence and absence of Survanta® were compared to determine the effect of binding to lung surfactant on the antibacterial activity of polymyxins.

[2] = test system: P. aeruginosa FADDI-PA025; assay type: cell-based, Pseudomonas aeruginosa; conditions: FADDI-PA025
Method: as §1

P. aeruginosa ATCC 27853 [3] = assay type: cell-based, Pseudomonas aeruginosa; conditions: ATCC 27853
Method: as §1

[4] = test system: K. pneumoniae FADDI-KP065; assay type: cell-based, Klebsiella pneumoniae; conditions: FADDI-KP065
Method: as §1

[5] = test system: K. pneumoniae FADDI-KP032; assay type: cell-based, Klebsiella pneumoniae; conditions: FADDI-KP032
Method: as §1

A. baumannii FADDI-AB030 = assay type: cell-based, Acinetobacter baumannii; conditions: FADDI-AB030
Method: as §1

A. baumannii FADDI-AB034 = assay type: cell-based, Acinetobacter baumannii; conditions: FADDI-AB034
Method: as §1

A. baumannii ATCC 19606 = assay type: cell-based, Acinetobacter baumannii; conditions: ATCC 19606
Method: as §1

P. aeruginosa ATCC 27853 [6] = test: Neutropenic mouse bloodstream infection model; assay type: in vivo; conditions: single IV dose 4 mg/kg; for Log10 CFU/mL blood at 4 h, Mean / Δlog10 CFU/mL blood (mean) / Log10 CFU/mL blood at 4 h, single mouse: 4 h; for Δlog10 CFU/mL blood (mean): treated minus control, mean of replicates; for Δlog10 CFU/mL blood (mean) / Log10 CFU/mL blood at 4 h, single mouse / Delta Log10 CFU/mL blood at 4 h, single mouse: 4 mg/kg; for Delta Log10 CFU/mL blood at 4 h, single mouse: treated mouse minus mean of vehicle mice
Method: The experimental methodology for the neutropenic mouse bloodstream infection model was described previously. Briefly, 7-week-old female Swiss mice (22–28 g) were rendered neutropenic by intraperitoneal administration of cyclophosphamide, 4 days (150 mg/kg) and 1 day (100 mg/kg) prior to inoculation. Bloodstream infection was established by intravenous administration of a 50 µL bolus of early log-phase bacterial suspension (4 × 10^8 CFU/mL). Lipopeptide solutions were prepared at 1 mg/mL (free base) in sterile saline. At 2 h after inoculation, mice (n = 3) were injected intravenously with lipopeptide solution at 4 mg/kg (free base) or saline control. At 0 and 4 h after administration, blood was collected, diluted serially in sterile saline, and plated on nutrient agar plates. Agar plates were incubated at 37 °C overnight for bacterial colony counting and the bacterial load in the blood (log10 CFU/mL) in each mouse was calculated. In vivo efficacy was calculated as the difference of the log10 CFU/mL blood values between the treated mice and the saline-treated mice at 4 h post dosing (Δlog10 CFU/mL blood = log10 [treated] CFU/mL blood − log10[control] CFU/mL blood).

Swiss mice, kidney = test: Nephrotoxicity in mice (kidney histopathology); assay type: in vivo, mouse; conditions: for Kidney histopathology (SQS Score): 72 mg/kg/d subcutaneously in six divided doses every 2 h, n = 3; for Kidney histopathology, mice with the SQS score: mouse, in vivo
Method: The experimental methodology has been previously reported by our group. Briefly, individual lipopeptide solutions were prepared in sterile saline (6 mg/mL). Swiss mice (female, 7-week-old, 22–28 g) were subcutaneously administered at 12 mg/kg in, 6 doses every 2 h to reach a total dose of 72 mg/kg (n = 3). For high-dose nephrotoxicity experiments, mice were intraperitoneally administered at 20 or 25 mg/kg, in 6 doses every 2 h to reach a total dose of 120 mg/kg (n = 6) or 150 mg/kg (n = 3). At 20 h after the last dose, the right kidney from each mouse was collected and placed in 10% buffered (pH 7.4) formalin (Sigma-Aldrich, Castle Hill, NSW, Australia). The kidneys were subjected to histological examination at the Australian Phenomics Network-Histopathology and Organ Pathology (University of Melbourne, Parkville, VIC, Australia), who was blind to the treatment groups.

Row | SMILES | MIC P. aeruginosa FADDI-PA038 [1] [µg/mL] | MIC P. aeruginosa FADDI-PA025 [2] [µg/mL] | MIC P. aeruginosa ATCC 27853 (P. aeruginosa ATCC 27853 [3]) [µg/mL] | MIC K. pneumoniae FADDI-KP065 [4] [µg/mL] | MIC K. pneumoniae FADDI-KP032 [5] [µg/mL] | MIC A. baumannii FADDI-AB030 (A. baumannii FADDI-AB030) [µg/mL] | MIC A. baumannii FADDI-AB034 (A. baumannii FADDI-AB034) [µg/mL] | MIC A. baumannii ATCC 19606 (A. baumannii ATCC 19606) [µg/mL] | Log10 CFU/mL blood at 4 h, Mean (P. aeruginosa ATCC 27853 [6]) [Log10 CFU/mL blood] | Δlog10 CFU/mL blood (mean) (P. aeruginosa ATCC 27853 [6]) [log10 CFU/mL blood] | Log10 CFU/mL blood at 4 h, single mouse (P. aeruginosa ATCC 27853 [6]) | Delta Log10 CFU/mL blood at 4 h, single mouse (P. aeruginosa ATCC 27853 [6]) | Kidney histopathology (SQS Score) (Swiss mice, kidney) | Kidney histopathology, mice with the SQS score (Swiss mice, kidney)
1 | CCCCCCCC(=O)N[C@@H](CCN)C(=O)N[C@H](C(=O)N[C@@H](CCN)C(=O)N[C@H]1CCNC(=O)[C@H]([C@@H](C)O)NC(=O)[C@H](CCN)NC(=O)[C@H](CCN)NC(=O)[C@H]([C@@H](C)O)NC(=O)[C@@H](CC(C)C)NC(=O)[C@H](CCN)NC1=O)[C@@H](C)O [Lipopeptide F100] (HELM PEPTIDE1{[CCCCCCCC(=O)[*:2]].[Dab].T.[Dab].[Dab].[Dab].[dL].T.[Dab].[Dab].T}$PEPTIDE1,PEPTIDE1,5:R3-11:R2$$$V2.0) | 0.5 (≈ 0.437 µM) | >32 | 0.5 (≈ 0.437 µM) | <0.125 | 0.25 (≈ 0.219 µM) | 1 (≈ 0.875 µM) | 2 (≈ 1.75 µM) | 4 (≈ 3.5 µM) | 4.44 | −3.01 | 4.50 Log10 CFU/mL blood and 4.28 Log10 CFU/mL blood and 4.53 Log10 CFU/mL blood | -2.95 Log10 CFU/mL blood and -3.17 Log10 CFU/mL blood and -2.91 Log10 CFU/mL blood | 0 (SQS 0 = no significant change (overall score, <1)) | 3/3
2 | CCCCCCCC(=O)N[C@@H](CCN)C(=O)N[C@H](C(=O)N[C@@H](CCN)C(=O)N[C@H]1CCNC(=O)[C@H]([C@@H](C)O)NC(=O)[C@H](CCN)NC(=O)[C@H](CCN)NC(=O)[C@H](C)NC(=O)[C@@H](CC(C)C)NC(=O)[C@H](CCN)NC1=O)[C@@H](C)O [Lipopeptide F124] (HELM PEPTIDE1{[CCCCCCCC(=O)[*:2]].[Dab].T.[Dab].[Dab].[Dab].[dL].A.[Dab].[Dab].T}$PEPTIDE1,PEPTIDE1,5:R3-11:R2$$$V2.0) | 0.5 (≈ 0.449 µM) | >32 | 0.5 (≈ 0.449 µM) | <0.125 | 0.25 (≈ 0.225 µM) | 1 (≈ 0.898 µM) | 0.5 (≈ 0.449 µM) | 1 (≈ 0.898 µM) | 4.53 | −2.92 | 4.71 Log10 CFU/mL blood and 4.61 Log10 CFU/mL blood and 4.26 Log10 CFU/mL blood | -2.74 Log10 CFU/mL blood and -2.83 Log10 CFU/mL blood and -3.19 Log10 CFU/mL blood | 0 (SQS 0 = no significant change (overall score, <1)) | 3/3
3 | CCCCCCCC(=O)N[C@@H](CCN)C(=O)N[C@H](C(=O)N[C@@H](CCN)C(=O)N[C@H]1CCNC(=O)[C@H]([C@@H](C)O)NC(=O)[C@H](CCN)NC(=O)[C@H](CCN)NC(=O)[C@H]([C@@H](C)O)NC(=O)[C@@H](Cc2ccccc2)NC(=O)[C@H](CCN)NC1=O)[C@@H](C)O [Lipopeptide F224] (HELM PEPTIDE1{[CCCCCCCC(=O)[*:2]].[Dab].T.[Dab].[Dab].[Dab].[dF].T.[Dab].[Dab].T}$PEPTIDE1,PEPTIDE1,5:R3-11:R2$$$V2.0) | 0.5 (≈ 0.425 µM) | 16 (≈ 13.6 µM) | 1 (≈ 0.849 µM) | <0.125 | 0.5 (≈ 0.425 µM) | 0.25 (≈ 0.212 µM) | 0.5 (≈ 0.425 µM) | 1 (≈ 0.849 µM) | 4.07 | −3.38 | 4.08 Log10 CFU/mL blood and 4.03 Log10 CFU/mL blood and 4.10 Log10 CFU/mL blood | -3.37 Log10 CFU/mL blood and -3.42 Log10 CFU/mL blood and -3.35 Log10 CFU/mL blood | 0 (SQS 0 = no significant change (overall score, <1)) | 3/3
4 | CCCCCCCC(=O)N[C@@H](CCN)C(=O)N[C@H](C(=O)N[C@@H](CCN)C(=O)N[C@H]1CCNC(=O)[C@H]([C@@H](C)O)NC(=O)[C@H](CCN)NC(=O)[C@H](CCN)NC(=O)[C@H](C(C)C)NC(=O)[C@@H](CC(C)C)NC(=O)[C@H](CCN)NC1=O)[C@@H](C)O [Lipopeptide F225] (HELM PEPTIDE1{[CCCCCCCC(=O)[*:2]].[Dab].T.[Dab].[Dab].[Dab].[dL].V.[Dab].[Dab].T}$PEPTIDE1,PEPTIDE1,5:R3-11:R2$$$V2.0) | 1 (≈ 0.876 µM) | 4 (≈ 3.5 µM) | 1 (≈ 0.876 µM) | <0.125 | <0.125 | 0.25 (≈ 0.219 µM) | 0.25 (≈ 0.219 µM) | 0.5 (≈ 0.438 µM) | 4.59 | −2.86 | 4.22 Log10 CFU/mL blood and 4.78 Log10 CFU/mL blood (2×) | -3.23 Log10 CFU/mL blood and -2.67 Log10 CFU/mL blood (2×) | 0 (SQS 0 = no significant change (overall score, <1)) | 3/3
5 | CCCCCCCC(=O)N[C@@H](CCN)C(=O)N[C@H](C(=O)N[C@@H](CCN)C(=O)N[C@H]1CCNC(=O)[C@H]([C@@H](C)O)NC(=O)[C@H](CCN)NC(=O)[C@H](CCN)NC(=O)[C@H]([C@@H](C)O)NC(=O)[C@@H](CCCC)NC(=O)[C@H](CCN)NC1=O)[C@@H](C)O [Lipopeptide F226] (HELM PEPTIDE1{[CCCCCCCC(=O)[*:2]].[Dab].T.[Dab].[Dab].[Dab].[CCCC[C@@H](N[*:1])C(=O)[*:2]].T.[Dab].[Dab].T}$PEPTIDE1,PEPTIDE1,5:R3-11:R2$$$V2.0) | 1 (≈ 0.875 µM) | 16 (≈ 14 µM) | 1 (≈ 0.875 µM) | <0.125 | <0.125 | 0.5 (≈ 0.437 µM) | 1 (≈ 0.875 µM) | 2 (≈ 1.75 µM) | 4.20 | −3.24 | 4.01 Log10 CFU/mL blood and 4.55 Log10 CFU/mL blood and 4.05 Log10 CFU/mL blood | -3.43 Log10 CFU/mL blood and -2.90 Log10 CFU/mL blood and -3.40 Log10 CFU/mL blood | +1 (SQS + 1 = mild damage (overall score, 1 to <15)) | 1/3
